One experiment relates to K562. Kind of experiment: Cytotoxicity against human K562 cells by spectrophotometric analysis. It is filed as functional, cell-based.
In a further experiment the test system is P388. The experiment can be described thus: Cytotoxicity against mouse P388 cells. The conditions noted are these: read-out: ED50 (the source's name). It counts as functional.

≈ marks a conversion by molar mass, not a printed value.

The values below come from ChEMBL document CHEMBL1926682, “Triterpene galactosides of the pouoside class and corresponding aglycones from the sponge Lipastrotethya sp” (J Nat Prod, 2011).

For orientation: IC50 means the concentration that gives 50% inhibition. Low values mean inhibition by little substance, high ones a need for much substance.

`CC(=O)O[C@@H](C[C@H]1C(C)(C)C(=O)C=C[C@]1(C)O)/C(C)=C/[C@H](O)C/C=C(\C)CC[C@H]1C(C)(C)[C@@H](O)CC[C@]1(C)OC(C)=O` [POUOGENIN D] yielded an IC50 with K562 of 27.5 µM.

In the case of `CC(=O)O[C@@H](C[C@@H]1C(C)=CCC(=O)C1(C)C)/C(C)=C/[C@H](O)C/C=C(\C)CC[C@H]1C(C)(C)[C@@H](O)CC[C@]1(C)OC(C)=O` [POUOGENIN C], the IC50 with K562 is 14.6 µM.

`CC(=O)O[C@@H](C[C@@H]1C(C)=CCC(=O)C1(C)C)/C(C)=C/[C@H](O)C/C=C(\C)CC[C@H]1C(C)(C)[C@@H](O[C@@H]2O[C@H](CO)[C@H](O)[C@H](O)[C@H]2O)CC[C@]1(C)OC(C)=O` [POUOSIDE B] displayed an IC50 with K562 of over 100 µM.

On to `COc1cccc2c1C(=O)c1c(O)c3c(c(O)c1C2=O)C[C@@](O)(C(=O)CO)C[C@@H]3O[C@H]1C[C@H](N)[C@H](O)[C@H](C)O1` [DOXORUBICIN], for which the IC50 with K562 stood at 13.6 µM.

Consider `CC(=O)O[C@@]1(C)CC[C@H](O)C(C)(C)[C@@H]1CC/C(C)=C/C[C@@H](O)/C=C(\C)[C@@H](O)C[C@@H]1C(C)=CCC(=O)C1(C)C` [POUOGENIN A], for which the IC50 in the experiment with K562 is 14.8 µM.

Regarding `CC(=O)O[C@@H](C[C@H]1C(C)(C)C(=O)C=C[C@]1(C)O)/C(C)=C/[C@H](O)C/C=C(\C)CC[C@H]1C(C)(C)[C@@H](O[C@@H]2O[C@H](CO)[C@H](O)[C@H](O)[C@H]2O)CC[C@]1(C)OC(C)=O` [POUOSIDE G], the IC50 with K562 was over 100 µM.

With `CC(=O)O[C@@]1(C)CC[C@H](O[C@@H]2O[C@H](CO)[C@H](O)[C@H](O)[C@H]2O)C(C)(C)[C@@H]1CC/C(C)=C/C[C@@H](O)/C=C(\C)[C@@H](O)C[C@@H]1C(C)=CCC(=O)C1(C)C` [POUOSIDE F], the IC50 in the experiment on K562 is over 100 µM.

Compound `C=C1CC[C@H](O[C@@H]2O[C@H](CO)[C@H](O)[C@H](O)[C@H]2O)C(C)(C)[C@@H]1CC/C(C)=C/C[C@H](/C=C(\C)[C@H](C[C@@H]1C(C)=CCC(=O)C1(C)C)OC(C)=O)OC(C)=O` [POUOSIDE I] came in with an IC50 in the experiment with K562 of over 100 µM.

`CC(=O)O[C@@]1(C)CC[C@H](O[C@@H]2O[C@H](CO)[C@H](O)[C@H](O)[C@H]2O)C(C)(C)[C@@H]1CC/C(C)=C/C[C@@H](O)/C=C(\C)C(=O)C[C@H]1C(C)(C)C(=O)C=C[C@]1(C)O` [POUOSIDE H]: the IC50 in the experiment with K562 is over 100 µM.

In the experiment with K562, `CC(=O)O[C@@H](C[C@@H]1C(C)=CCC(=O)C1(C)C)/C(C)=C/[C@@H](C/C=C(\C)CC[C@H]1C(C)(C)[C@@H](O[C@@H]2O[C@H](CO)[C@H](O)[C@H](O)[C@H]2O)CC[C@]1(C)OC(C)=O)OC(C)=O` [POUOSIDE A] registered an IC50 of 17 µM. For the same compound, in the experiment on P388, the EC50 amounted to 1.5 mg/L (≈ 1.93 µM).

In the experiment with K562, `CC(=O)O[C@@]1(C)CC[C@H](O)C(C)(C)[C@@H]1CC/C(C)=C/C[C@@H](O)/C=C(\C)C(=O)C[C@H]1C(C)(C)C(=O)C=C[C@]1(C)O` [POUOGENIN E] returned an IC50 of 18.9 µM.

Compound `CC(=O)O[C@H]1[C@H](O[C@H]2CC[C@](C)(OC(C)=O)[C@@H](CC/C(C)=C/C[C@H](/C=C(\C)[C@H](C[C@@H]3C(C)=CCC(=O)C3(C)C)OC(C)=O)OC(C)=O)C2(C)C)O[C@H](CO)[C@H](O)[C@@H]1O` [POUOSIDE D] displayed an IC50 in the experiment on K562 of 12.5 µM.

As for `CC(=O)O[C@@H](C[C@@H]1C(C)=CCC(=O)C1(C)C)/C(C)=C/[C@@H](C/C=C(\C)CC[C@H]1C(C)(C)[C@@H](O)CC[C@]1(C)OC(C)=O)OC(C)=O` [POUOGENIN B], in the experiment on K562, half-maximal inhibition (IC50) required 38.9 µM.
